# Assay results as given in patent US20080051387A1, “TETRAHYDROPYRIDO[3,4-D]PYRIMIDINES AND RELATED ANALOGUES” (priority 2006, published 2008).
# Molecular target: T1, chimeric human H3 receptor (Homo sapiens, UniProt Q9Y5N1)
# T1 construct: rat Galpha-i2 (Gnai2, rat); made in house; host or cells: Sf9 insect cells (baculovirus); P2 membranes
# Assay: Chimeric human H3 receptor screening GTP binding assay (inhibition of histamine-stimulated GTP-gamma35S binding, Example 8)
# Format: biochemical
# Conditions: 1 h; assay described in Example 8; symbol "!" in column headed Ki; read-out: Ki ("!": percent inhibition of agonist-induced GTP-gammaS binding to H3)
# Procedure, shortened: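 Compound tested at 4 μM against 1 μM histamine stimulation; 125 pM GTP-gamma35S binding measured by filtration and scintillation after 60 min at room temperature. Membranes from Sf9 cells expressing chimeric human H3 plus G-protein subunits, in Tris pH 7.4/NaCl/MgCl2/GDP buffer; values are % inhibition after nonspecific subtraction.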
# T1 sequence (Q9Y5N1 with tags, fused parts or gaps): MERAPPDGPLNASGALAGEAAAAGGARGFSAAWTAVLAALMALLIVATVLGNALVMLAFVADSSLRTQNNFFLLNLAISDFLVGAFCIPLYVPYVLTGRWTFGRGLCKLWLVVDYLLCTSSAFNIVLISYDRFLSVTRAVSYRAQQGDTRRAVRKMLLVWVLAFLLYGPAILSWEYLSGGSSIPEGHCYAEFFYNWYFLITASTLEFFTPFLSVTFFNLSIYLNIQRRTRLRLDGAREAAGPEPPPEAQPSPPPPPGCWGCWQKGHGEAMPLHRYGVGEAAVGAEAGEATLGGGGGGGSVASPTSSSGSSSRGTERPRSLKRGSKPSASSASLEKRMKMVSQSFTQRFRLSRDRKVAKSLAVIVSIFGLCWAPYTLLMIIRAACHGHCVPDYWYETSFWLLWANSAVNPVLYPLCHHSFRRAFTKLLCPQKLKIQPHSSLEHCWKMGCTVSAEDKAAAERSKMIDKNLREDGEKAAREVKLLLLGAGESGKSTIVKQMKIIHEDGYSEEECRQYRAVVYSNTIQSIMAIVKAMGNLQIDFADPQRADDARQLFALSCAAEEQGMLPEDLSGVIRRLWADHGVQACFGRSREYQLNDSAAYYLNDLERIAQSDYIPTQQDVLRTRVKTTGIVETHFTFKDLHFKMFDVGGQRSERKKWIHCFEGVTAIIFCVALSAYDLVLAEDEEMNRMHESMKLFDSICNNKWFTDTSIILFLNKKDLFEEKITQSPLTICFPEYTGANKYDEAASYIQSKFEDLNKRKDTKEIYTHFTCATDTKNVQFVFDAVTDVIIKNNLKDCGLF
row,SMILES,inhibition at 4 µM [%]
1,"COc1ccc(Cl)cc1C(=O)N1CCc2cnc(N3CCN(C4CCC4)CC3)nc2CC1 [Compound 420, 7-(5-chloro-2-methoxybenzoyl)-2-(4-cyclobutylpiperazin-1-yl)-6,7,8,9-tetrahydro-5H-pyrimido[4,5-d]azepine]",≥ 90
2,"COc1cc(Cl)ccc1C(=O)N1CCc2cnc(N3CCN(C4CCC4)CC3)nc2CC1 [Compound 421, 7-(4-chloro-2-methoxybenzoyl)-2-(4-cyclobutylpiperazin-1-yl)-6,7,8,9-tetrahydro-5H-pyrimido[4,5-d]azepine]",≥ 90
3,"O=C(c1ccccc1Oc1ccccc1)N1CCc2cnc(N3CCN(C4CCC4)CC3)nc2CC1 [Compound 422, 2-(4-cyclobutylpiperazin-1-yl)-7-(2-phenoxybenzoyl)-6,7,8,9-tetrahydro-5H-pyrimido[4,5-d]azepine]",≥ 90
4,"COc1ccc(OC)c(C(=O)N2CCc3cnc(N4CCN(C5CCC5)CC4)nc3CC2)c1 [Compound 423, 2-(4-cyclobutylpiperazin-1-yl)-7-(2,5-dimethoxybenzoyl)-6,7,8,9-tetrahydro-5H-pyrimido[4,5-d]azepine]",≥ 90
5,"COc1cccc(OC)c1C(=O)N1CCc2cnc(N3CCN(C4CCC4)CC3)nc2CC1 [Compound 424, 2-(4-cyclobutylpiperazin-1-yl)-7-(2,6-dimethoxybenzoyl)-6,7,8,9-tetrahydro-5H-pyrimido[4,5-d]azepine]",≥ 90
6,"COc1ccc(C(=O)N2CCc3cnc(N4CCN(C5CCC5)CC4)nc3CC2)c(Cl)c1OC [Compound 425, 7-(2-chloro-3,4-dimethoxybenzoyl)-2-(4-cyclobutylpiperazin-1-yl)-6,7,8,9-tetrahydro-5H-pyrimido[4,5-d]azepine]",≥ 90
7,"COc1ccc(Cl)c(OC)c1C(=O)N1CCc2cnc(N3CCN(C4CCC4)CC3)nc2CC1 [Compound 426, 7-(3-chloro-2,6-dimethoxybenzoyl)-2-(4-cyclobutylpiperazin-1-yl)-6,7,8,9-tetrahydro-5H-pyrimido[4,5-d]azepine]",≥ 90
8,"COc1c(Cl)cc(Cl)c(OC)c1C(=O)N1CCc2cnc(N3CCN(C4CCC4)CC3)nc2CC1 [Compound 427, 2-(4-cyclobutylpiperazin-1-yl)-7-(3,5-dichloro-2,6-dimethoxybenzoyl)-6,7,8,9-tetrahydro-5H-pyrimido[4,5-d]azepine]",≥ 90
9,"COc1cc(Cl)c(C(=O)N2CCc3cnc(N4CCN(C5CCC5)CC4)nc3CC2)cc1OC [Compound 428, 7-(2-chloro-4,5-dimethoxybenzoyl)-2-(4-cyclobutylpiperazin-1-yl)-6,7,8,9-tetrahydro-5H-pyrimido[4,5-d]azepine]",≥ 90
10,"COc1cc(Br)c(C(=O)N2CCc3cnc(N4CCN(C5CCC5)CC4)nc3CC2)cc1OC [Compound 429, 7-(2-bromo-4,5-dimethoxybenzoyl)-2-(4-cyclobutylpiperazin-1-yl)-6,7,8,9-tetrahydro-5H-pyrimido[4,5-d]azepine]",≥ 90
11,"COc1cccc(C(=O)N2CCc3cnc(N4CCN(C5CCC5)CC4)nc3CC2)c1OC [Compound 430, 2-(4-cyclobutylpiperazin-1-yl)-7-(2,3-dimethoxybenzoyl)-6,7,8,9-tetrahydro-5H-pyrimido[4,5-d]azepine]",≥ 90
12,"COc1ccc(C(=O)N2CCc3cnc(N4CCN(C5CCC5)CC4)nc3CC2)c(OC)c1 [Compound 431, 2-(4-cyclobutylpiperazin-1-yl)-7-(2,4-dimethoxybenzoyl)-6,7,8,9-tetrahydro-5H-pyrimido[4,5-d]azepine]",≥ 90
13,"COc1ccc(C(=O)N2CCc3cnc(N4CCN(C5CCC5)CC4)nc3CC2)c(OC)c1OC [Compound 432, 2-(4-cyclobutylpiperazin-1-yl)-7-(2,3,4-trimethoxybenzoyl)-6,7,8,9-tetrahydro-5H-pyrimido[4,5-d]azepine]",≥ 90
14,"O=C(c1c(F)cccc1Cl)N1CCc2cnc(N3CCN(C4CCC4)CC3)nc2CC1 [Compound 433, 7-(2-chloro-6-fluorobenzoyl)-2-(4-cyclobutylpiperazin-1-yl)-6,7,8,9-tetrahydro-5H-pyrimido[4,5-d]azepine]",≥ 90
15,"O=C(c1c(F)cccc1C(F)(F)F)N1CCc2cnc(N3CCN(C4CCC4)CC3)nc2CC1 [Compound 434, 2-(4-cyclobutylpiperazin-1-yl)-7-[2-fluoro-6-(trifluoromethyl)benzoyl]-6,7,8,9-tetrahydro-5H-pyrimido[4,5-d]azepine]",≥ 90
16,"O=C(c1c(Cl)cccc1Cl)N1CCc2cnc(N3CCN(C4CCC4)CC3)nc2CC1 [Compound 435, 2-(4-cyclobutylpiperazin-1-yl)-7-(2,6-dichlorobenzoyl)-6,7,8,9-tetrahydro-5H-pyrimido[4,5-d]azepine]",≥ 90
17,"O=C(c1ccccc1Cl)N1CCc2cnc(N3CCN(C4CCC4)CC3)nc2CC1 [Compound 436, 7-(2-chlorobenzoyl)-2-(4-cyclobutylpiperazin-1-yl)-6,7,8,9-tetrahydro-5H-pyrimido[4,5-d]azepine]",≥ 90

row,SMILES,inhibition at 4 µM [%]
1,"O=C(c1cccc(C(F)(F)F)c1Cl)N1CCc2cnc(N3CCN(C4CCC4)CC3)nc2CC1 [Compound 437, 7-[2-chloro-3-(trifluoromethyl)benzoyl]-2-(4-cyclobutylpiperazin-1-yl)-6,7,8,9-tetrahydro-5H-pyrimido[4,5-d]azepine]",≥ 90
2,"O=C(c1cc(C(F)(F)F)ccc1Cl)N1CCc2cnc(N3CCN(C4CCC4)CC3)nc2CC1 [Compound 438, 7-[2-chloro-5-(trifluoromethyl)benzoyl]-2-(4-cyclobutylpiperazin-1-yl)-6,7,8,9-tetrahydro-5H-pyrimido[4,5-d]azepine]",≥ 90
3,"O=C(c1ccccc1C(F)(F)F)N1CCc2cnc(N3CCN(C4CCC4)CC3)nc2CC1 [Compound 439, 2-(4-cyclobutylpiperazin-1-yl)-7-[2-(trifluoromethyl)benzoyl]-6,7,8,9-tetrahydro-5H-pyrimido[4,5-d]azepine]",≥ 90
4,"O=C(c1cccc(Cl)c1Cl)N1CCc2cnc(N3CCN(C4CCC4)CC3)nc2CC1 [Compound 440, 2-(4-cyclobutylpiperazin-1-yl)-7-(2,3-dichlorobenzoyl)-6,7,8,9-tetrahydro-5H-pyrimido[4,5-d]azepine]",≥ 90
5,"O=C(c1cc(Cl)ccc1Cl)N1CCc2cnc(N3CCN(C4CCC4)CC3)nc2CC1 [Compound 441, 2-(4-cyclobutylpiperazin-1-yl)-7-(2,5-dichlorobenzoyl)-6,7,8,9-tetrahydro-5H-pyrimido[4,5-d]azepine]",≥ 90
6,"O=C(c1ccc(Cl)cc1Cl)N1CCc2cnc(N3CCN(C4CCC4)CC3)nc2CC1 [Compound 442, 2-(4-cyclobutylpiperazin-1-yl)-7-(2,4-dichlorobenzoyl)-6,7,8,9-tetrahydro-5H-pyrimido[4,5-d]azepine]",≥ 90
7,"O=C(c1cccs1)N1CCc2cnc(N3CCN(C4CCC4)CC3)nc2CC1 [Compound 443, 2-(4-cyclobutylpiperazin-1-yl)-7-(2-thienylcarbonyl)-6,7,8,9-tetrahydro-5H-pyrimido[4,5-d]azepine]",≥ 90
8,"Cc1ccsc1C(=O)N1CCc2cnc(N3CCN(C4CCC4)CC3)nc2CC1 [Compound 444, 2-(4-cyclobutylpiperazin-1-yl)-7-[(3-methyl-2-thienyl)carbonyl]-6,7,8,9-tetrahydro-5H-pyrimido[4,5-d]azepine]",≥ 90
9,"Cc1ccc(C(=O)N2CCc3cnc(N4CCN(C5CCC5)CC4)nc3CC2)s1 [Compound 445, 2-(4-cyclobutylpiperazin-1-yl)-7-[(5-methyl-2-thienyl)carbonyl]-6,7,8,9-tetrahydro-5H-pyrimido[4,5-d]azepine]",≥ 90
10,"O=C(c1sccc1Cl)N1CCc2cnc(N3CCN(C4CCC4)CC3)nc2CC1 [Compound 446, 7-[(3-chloro-2-thienyl)carbonyl]-2-(4-cyclobutylpiperazin-1-yl)-6,7,8,9-tetrahydro-5H-pyrimido[4,5-d]azepine]",≥ 90
11,"CCOc1ccsc1C(=O)N1CCc2cnc(N3CCN(C4CCC4)CC3)nc2CC1 [Compound 447, 2-(4-cyclobutylpiperazin-1-yl)-7-[(3-ethoxy-2-thienyl)carbonyl]-6,7,8,9-tetrahydro-5H-pyrimido[4,5-d]azepine]",≥ 90
12,"CSc1ccc(C(=O)N2CCc3cnc(N4CCN(C5CCC5)CC4)nc3CC2)s1 [Compound 448, 2-(4-cyclobutylpiperazin-1-yl)-7-{[5-(methylthio)-2-thienyl]carbonyl}-6,7,8,9-tetrahydro-5H-pyrimido[4,5-d]azepine]",≥ 90
13,"O=C(c1ccc(Br)s1)N1CCc2cnc(N3CCN(C4CCC4)CC3)nc2CC1 [Compound 449, 7-[(5-bromo-2-thienyl)carbonyl]-2-(4-cyclobutylpiperazin-1-yl)-6,7,8,9-tetrahydro-5H-pyrimido[4,5-d]azepine]",≥ 90
14,"O=C(c1sccc1Br)N1CCc2cnc(N3CCN(C4CCC4)CC3)nc2CC1 [Compound 450, 7-[(3-bromo-2-thienyl)carbonyl]-2-(4-cyclobutylpiperazin-1-yl)-6,7,8,9-tetrahydro-5H-pyrimido[4,5-d]azepine]",≥ 90
15,"CCc1ccc(C(=O)N2CCc3cnc(N4CCN(C5CCC5)CC4)nc3CC2)s1 [Compound 451, 2-(4-cyclobutylpiperazin-1-yl)-7-[(5-ethyl-2-thienyl)carbonyl]-6,7,8,9-tetrahydro-5H-pyrimido[4,5-d]azepine]",≥ 90
16,"CCCc1ccc(C(=O)N2CCc3cnc(N4CCN(C5CCC5)CC4)nc3CC2)s1 [Compound 452, 2-(4-cyclobutylpiperazin-1-yl)-7-[(5-propyl-2-thienyl)carbonyl]-6,7,8,9-tetrahydro-5H-pyrimido[4,5-d]azepine]",≥ 90
